US20210038730A1, “PEPTIDE NANOFIBERS” (UNIVERSITY OF PORTSMOUTH HIGHER EDUCATION CORPORATION, priority 2018, published 2021)
Converted amounts (≈) assume the structure as drawn. Read-outs that look alike come from different tables or passages of the source. Each block holds one compound with its values, some of them ahead of it.

What was measured:
[1] = Enzymatic stability in rat plasma; settings: 50% (v/v) rat plasma
Method: (§1) Fresh blood, obtained from adult male Wistar rats, was collected in sterile the 170 I.U. lithium heparin-coated tubes (Vacutainer, BD Bioscience, UK). Blood was centrifuged immediately at 2,000 g for 15 minutes (4° C.) and supernatant was collected and diluted to 50% (v/v) with PBS. Livers and brains were obtained from adult male Wistar rats, and the tissues were blotted to dryness, weighed, sliced into pieces, and homogenised with ice-cold PBS (in 2 mL of buffer g^−1 of tissue) using the glass homogeniser. Then, tissue homogenates were centrifuged at 4,300 g for 1 hour (4° C.) and the supernatants collected. Glioblastoma cell homogenates were prepared using U-87 MG cells. Cells were cultured in Eagle's Minimum Essential Medium (EMEM) supplemented with 10% (v/v) heat-inactivated fetal bovine serum (FBS), 1% (v/v) of non-essential amino acids (NEAA) and 1 mM of sodium pyruvate in T75 flasks with a surface area of 75 cm^2 and maintained in a humidified atmosphere of 5% CO2 at 37° C. Breast cancer cell homogenates were prepared using MDA-MB-231 cells. Cells were cultured in Dulbecco's Modified Eagle Medium (DMEM) supplemented with high levels of glucose (4.5 g/L), 10% (v/v) heat-inactivated fetal bovine serum (FBS), 1% (v/v) of non-essential amino acids (NEAA) and penicillin and streptomycin (500 units/mL) in T75 flasks with a surface area of 75 cm^2 and maintained in a humidified atmosphere of 5% CO2 at 37° C. Media was changed for both cell lines every 3 to 4 days. After reaching confluence, cells were washed twice with Hank's Balanced Salt Solution (HBSS) and incubated with ˜2 mL of TrypLE Enzyme at 37° C. for ˜3 minutes. Then, complete media were added, and cells were centrifuged at 1,000 rpm for 5 minutes in C-28A centrifuge (Boeco, Germany). U-87 MG or MDA-MB-231 cells (˜10×10^6 cells mL^−1) were re-suspended in ice-cold PBS, and homogenised with a 2×5 second pulses with the probe sonicator (UP200S Ultrasonic processor, SciMed, 200 watts, amplitude of 60%). Cell debris were removed by centrifugation at 2,000 rpm for 5 minutes (Jouan B4i, Thermo Scientific, Paisley, UK). Supernatant was collected and stored at −80° C. Total protein concentration in the homogenates was determined using the Bradford assay with bovine serum albumin as a standard. Diluted plasma, tissue or cell homogenates were pre-warmed during ˜30 minutes at 37° C. Peptide stock solutions (Glu-GnRH, goserelin acetate and TPGnRH, 5 mM in PBS, 500 μL) were prepared and added to the homogenate solutions (120 μL). […] Samples were vortexed for 15 minutes, centrifuged for 15 minutes at 12,000 rpm, and the supernatants were collected and analysed by RP-HPLC.

[2] = biological target: T1, GnRH-R expressed on glioblastoma cells (Homo sapiens, UniProt P30968); assay: Receptor binding by single molecule force spectroscopy; settings: for koff: read-out: Dissociation Rate (Koff)
T1 construct: GnRH peptides to the GnRH-R expressed on glioblastoma cells; endogenous in cells; host or cells: U-87 MG, UP-007, UP-029, SEBTA-023 glioblastoma cells (living)
T1 sequence (P30968 1-328): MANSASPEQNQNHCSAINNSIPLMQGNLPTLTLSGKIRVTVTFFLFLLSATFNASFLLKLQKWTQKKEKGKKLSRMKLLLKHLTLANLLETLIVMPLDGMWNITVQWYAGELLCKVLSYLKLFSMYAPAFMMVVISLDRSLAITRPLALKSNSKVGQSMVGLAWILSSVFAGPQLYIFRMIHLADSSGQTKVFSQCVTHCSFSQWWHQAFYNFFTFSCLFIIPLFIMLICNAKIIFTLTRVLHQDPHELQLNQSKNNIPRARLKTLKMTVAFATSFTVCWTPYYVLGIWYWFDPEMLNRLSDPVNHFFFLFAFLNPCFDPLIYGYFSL
Method: The binding of the GnRH analogues to GnRH-R was assessed using single molecule force spectroscopy (SMFS) and Topography and Recognition (TREC) imaging based on AFM. AFM tips were functionalised with Glu-GnRH, goserelin acetate and […] as a monomer and nanofibers using a previously described method ^9, 10. Silicon nitride (6-20 pN/nm spring constant, Bruker, Mass., USA) and magnetically coated […] tips (Keysight, Calif., USA) were used for SMFS and TREC studies, respectively. […] Subsequently, acetal groups were converted into aldehyde groups by immersing the tips in a 1% (w/v) citric acid solution for 10 minutes. […] Following an incubation of 2 hours, the free aldehyde groups were inactivated by ethanolamine for 10 minutes. AFM tips were washed with PBS three times and stored at 4° C. […] Loading rates were calculated by multiplying the pulling velocity (v) with the effective spring constant (keff). Spring constants were determined by the thermal-noise method. The force-distance curves were acquired using PicoView 1.12 (Agilent Technologies, Inc., California, USA) and analysed in Matlab 8.1 software (MathWorks, Massachusetts, USA). […] Amplitude-distance curves were collected on a glass coverslip to adjust the free oscillation amplitude, and to determine the optimal amplitude reduction value for driving the feedback loop during the imaging. Free amplitude of cantilever oscillation was 30 nm and the excitation frequency was set to 9 kHz.

[3] = Enzymatic stability in rat brain homogenates; settings: 50% (v/v) rat brain homogenates
Method: as §1

[4] = Enzymatic stability in MDA-MB-231 cell homogenates
Method: Fresh blood, obtained from adult male Wistar rats, was collected in sterile the 170 I.U. lithium heparin-coated tubes (Vacutainer, BD Bioscience, UK). Blood was centrifuged immediately at 2,000 g for 15 minutes (4° C.) and supernatant was collected and diluted to 50% (v/v) with PBS. Livers and brains were obtained from adult male Wistar rats, and the tissues were blotted to dryness, weighed, sliced into pieces, and homogenised with ice-cold PBS (in 2 mL of buffer g^−1 of tissue) using the glass homogeniser. Then, tissue homogenates were centrifuged at 4,300 g for 1 hour (4° C.) and the supernatants collected. Glioblastoma cell homogenates were prepared using U-87 MG cells. Cells were cultured in Eagle's Minimum Essential Medium (EMEM) supplemented with 10% (v/v) heat-inactivated fetal bovine serum (FBS), 1% (v/v) of non-essential amino acids (NEAA) and 1 mM of sodium pyruvate in T75 flasks with a surface area of 75 cm^2 and maintained in a humidified atmosphere of 5% CO2 at 37° C. Breast cancer cell homogenates were prepared using MDA-MB-231 cells. Cells were cultured in Dulbecco's Modified Eagle Medium (DMEM) supplemented with high levels of glucose (4.5 g/L), 10% (v/v) heat-inactivated fetal bovine serum (FBS), 1% (v/v) of non-essential amino acids (NEAA) and penicillin and streptomycin (500 units/mL) in T75 flasks with a surface area of 75 cm^2 and maintained in a humidified atmosphere of 5% CO2 at 37° C. Media was changed for both cell lines every 3 to 4 days. After reaching confluence, cells were washed twice with Hank's Balanced Salt Solution (HBSS) and incubated with ˜2 mL of TrypLE Enzyme at 37° C. for ˜3 minutes. Then, complete media were added, and cells were centrifuged at 1,000 rpm for 5 minutes in C-28A centrifuge (Boeco, Germany). U-87 MG or MDA-MB-231 cells (˜10×10^6 cells mL^−1) were re-suspended in ice-cold PBS, and homogenised with a 2×5 second pulses with the probe sonicator (UP200S Ultrasonic processor, SciMed, 200 watts, amplitude of 60%). Cell debris were removed by centrifugation at 2,000 rpm for 5 minutes (Jouan B4i, Thermo Scientific, Paisley, UK). Supernatant was collected and stored at −80° C. Total protein concentration in the homogenates was determined using the Bradford assay with bovine serum albumin as a standard. Diluted plasma, tissue or cell homogenates were pre-warmed during ˜30 minutes at 37° C. Peptide stock solutions (Glu-GnRH, goserelin acetate and TPGnRH, 5 mM in PBS, 500 μL) were prepared and added to the homogenate solutions (120 μL). PAX-loaded nanofibers prepared at a ratio of 1:7.36 [PAX:TPGnRH consisting of 3 μmol (2.56 mg mL^−1) of PAX, 22.02 μmol (31.46 mg mL^−1) of TPGnRH], as previously described, and further diluted in PBS to achieve a concentration of 5 mM of TPGnRH and 500 nM of PAX (120 μL) were added to the homogenates. At various time intervals, an aliquot was collected (80 μL) and added to ice-cold ACN (80 μL) to quench the enzymatic activity. Samples were stored at −80° C. for at least 3 hours to maximise protein precipitation. Samples were vortexed for 15 minutes, centrifuged for 15 minutes at 12,000 rpm, and the supernatants were collected and analysed by RP-HPLC.

GnRH-R on U-87 MG cells = biological target: T2, GnRH-R on U-87 MG cells (Homo sapiens, UniProt P30968); assay: SMFS blocking experiments with free GnRH-R ligands; assay type: binding
T2 construct: endogenous in cells; host or cells: U-87 MG
T2 sequence (P30968 1-328): T1 sequence (P30968 1-328)
Method: Blocking experiments were performed with different GnRH-R ligands (anti-GnRH-R antibody, Glu-GnRH, goserelin acetate, and TPGnRH). U-87 MG cells were analysed with tips functionalised with TPGnRH nanofibers and then the free ligands were added at a final concentration of 1 μg mL^−1 (anti-GnRH-R antibody) or 50 μg mL^−1 (Glu-GnRH, goserelin acetate and TPGnRH). U-87 MG cells treated with ligands were incubated for, at least, one hour at room temperature, and then the same cells were analysed with the same TPGnRH-functionalised tip at the same location in the cell.

[5] = Enzymatic stability in U-87 MG cell homogenates
Method: Fresh blood, obtained from adult male Wistar rats, was collected in sterile the 170 I.U. lithium heparin-coated tubes (Vacutainer, BD Bioscience, UK). Blood was centrifuged immediately at 2,000 g for 15 minutes (4° C.) and supernatant was collected and diluted to 50% (v/v) with PBS. Livers and brains were obtained from adult male Wistar rats, and the tissues were blotted to dryness, weighed, sliced into pieces, and homogenised with ice-cold PBS (in 2 mL of buffer g^−1 of tissue) using the glass homogeniser. Then, tissue homogenates were centrifuged at 4,300 g for 1 hour (4° C.) and the supernatants collected. Glioblastoma cell homogenates were prepared using U-87 MG cells. Cells were cultured in Eagle's Minimum Essential Medium (EMEM) supplemented with 10% (v/v) heat-inactivated fetal bovine serum (FBS), 1% (v/v) of non-essential amino acids (NEAA) and 1 mM of sodium pyruvate in T75 flasks with a surface area of 75 cm^2 and maintained in a humidified atmosphere of 5% CO2 at 37° C. Breast cancer cell homogenates were prepared using MDA-MB-231 cells. Cells were cultured in Dulbecco's Modified Eagle Medium (DMEM) supplemented with high levels of glucose (4.5 g/L), 10% (v/v) heat-inactivated fetal bovine serum (FBS), 1% (v/v) of non-essential amino acids (NEAA) and penicillin and streptomycin (500 units/mL) in T75 flasks with a surface area of 75 cm^2 and maintained in a humidified atmosphere of 5% CO2 at 37° C. Media was changed for both cell lines every 3 to 4 days. After reaching confluence, cells were washed twice with Hank's Balanced Salt Solution (HBSS) and incubated with ˜2 mL of TrypLE Enzyme at 37° C. for ˜3 minutes. Then, complete media were added, and cells were centrifuged at 1,000 rpm for 5 minutes in C-28A centrifuge (Boeco, Germany). […] Total protein concentration in the homogenates was determined using the Bradford assay with bovine serum albumin as a standard. […] Samples were vortexed for 15 minutes, centrifuged for 15 minutes at 12,000 rpm, and the supernatants were collected and analysed by RP-HPLC.

[6] = Enzymatic stability in rat liver homogenates; settings: 50% (v/v) rat liver homogenates; analyte in brackets of label
[7] = Release from 3D printed cellulose-sodium alginate bioinks; assay type: physicochemical; settings: PBS
Method: Peptide nanofibers were embedded in cellulose nanocrystals and sodium alginate hydrogels. Cellulose nanocrystals were synthesised by sulphuric acid degradation (45% w/v, 150 mls) of cellulose (15 g, Western Hemlock) at 50° C. over 90 minutes under stirring. Cold-deionised water was used to quench reaction and acid was removed by centrifugation (4,000 rpm, 10 minutes). Cellulose nanocrystals were dialysed (12-14 kDa for cytochrome C, Medicell Ltd) over 5 L with 6 changes over 24 hours. Resulting suspension was probe sonicated (400 watt, 23% amplitude, 10 minutes) in 50 mLs aliquots. The resulting suspension was centrifuged (4,000 rpm, 10 minutes) and supernatant was stored in the refrigerator. Cellulose nanocrystals (CNCs, 4.5% w/w, 2 g) were loaded onto a syringe attached to a three-way valve, where a syringe loaded sodium alginate (6% w/w in 4.6% glucose, 1.7 g). The CNCs were injected in the sodium alginate syringe and mixed 10 times (in each direction). Sample was collected in one syringe and a new syringe containing calcium chloride (0.1M, 0.9 mL). Sample was pushed into calcium chloride and mixed 5 times (in each direction) prior collecting the gel in one syringe and loading in cartridges. Peptide nanofibers (5 mg) were dispersed in 0.9 mL of 0.1M calcium chloride and mixed as above when needed. Release of paclitaxel loaded and TPGnRH gels in PBS (1×, 7.4, 6 mLs) was quantified as per HPLC method described previously (Example 7, Table 2). After an initial burst release, a controlled release profile is observed with gradual slow release over days. Resulting inks can be utilised for the production of nanofiber loaded implants for tumour patients.

in vitro = settings: human
Method: In order to test the permeability of TPGnRH nanofibers across the blood-brain barrier (BBB), a static contact co-culture was set up according to a previous method^7. Briefly, human astrocytes (SC-1800, 25,000 cells/well) were seeded on the abluminal side of a 24-well plate Transwell polycarbonate membrane (3 μm of a pore size, Corning Star, Deeside, UK) coated with human fibronectin. Cells were allowed to attach for 3 days, and then human brain microvascular endothelial cells (hCMEC/D3, 75,000 cells/well) were seeded on the luminal side of the Transwell and co-cultured with astrocytes for five days with a daily change of the media. Transendothelial resistance was measured using EVOM voltohmmeter (World Precision Instruments, Berlin, Germany).
Transwells were washed with HBSS and immersed into HBSS (600 μL in abluminal side). […] Samples (100 μL) were collected from the abluminal side at specific time-points, and fresh HBSS (100 μL) was used to replace the volume from the abluminal compartments. […] PAX was analysed using reverse phase-HPLC with the gradient method described on Table 2. TR-TPGnRH was quantified in POLARstar Omega plate reader spectrophotometer with λexc 596 and λem 615 nm. The permeability coefficient (Papp) was determined using the equation: […]
ΔQr, is the flux of drug along time (μg mL^−1), Vr is the volume of the abluminal side (mL), A is the area of the Transwell membrane, C0 is the concentration of drug in the luminal side, and 60, the converser factor from minutes to seconds^8.

physchem = assay: physchem
Method: Paclitaxel (PAX)-loaded TPGnRH nanofibers were prepared by adding a PAX solution (250 μL, 2.562 mg mL^−1 in isopropyl alcohol, IPA) to the dry peptide to achieve a molar ratio of 1:1, 1:1.95, 1:3.68 or 1:7.36 of PAX:TPGnRH. After vortexing, bath and probe sonication (200 watts, amplitude 60%, UP200S Ultrasonic, SciMed, Stockport, UK) for 10 minutes, the IPA was removed by rotary evaporation. The film was re-hydrated in acetate buffer (50 mM, pH 4.5), and the final formulation was centrifuged for 5 minutes at 900 rpm to remove undissolved PAX. Supernatant was collected and the amount of PAX and TPGnRH was quantified by reverse phase-HPLC. […] Morphology of PAX-loaded formulations was evaluated using TEM and AFM, as described above.

[8] = human, MDA-MB-231 breast cancer cell homogenate
[9] = after pre-incubation with the free ligand named as label (antibody 1 μg mL^−1, peptides 50 μg mL^−1)
[10] = before addition of the free ligand named as label (no pre-incubation)

- Plateau [1]: 3.952 µg/mL
- k ([1]; analyte in brackets of label): 0.04021 min⁻¹
- Binding Force ([2]; SEBTA-023): 40.3 ± 11.70 pN
- Binding Probability ([2]; SEBTA-023): 4.93 ± 0.91%
- koff ([2]; SEBTA-023): 1.22 ± 0.31 s⁻¹
- Binding Force ([2]; U-87 MG): 25.88 ± 0.94 pN
- Binding Probability ([2]; U-87 MG): 13.3 ± 1.91%
- koff ([2]; U-87 MG): 1.29 ± 0.34 s⁻¹
- Binding Force ([2]; UP-007): 38.20 ± 9.16 pN
- Binding Probability ([2]; UP-007): 12.84 ± 4.32%
- koff ([2]; UP-007): 1.52 ± 0.2 s⁻¹
- Binding Force ([2]; UP-029): 45.6 ± 4.64 pN
- Binding Probability ([2]; UP-029): 6.93 ± 2.96%
- koff ([2]; UP-029): 1.66 ± 0.25 s⁻¹
- Plateau [3]: 3.952 µg/mL
- k ([3]; analyte in brackets of label): 0.1928 min⁻¹
- Plateau ([4]; MDA-MB-231 cell homogenates): 552.9 µg/mL
- k ([4]; MDA-MB-231 cell homogenates): 0.1551 min⁻¹
- AUC(0-t) at 4.03 mM [4, 8]: 20000 µg·h/mL
- C0 at 4.03 mM [4, 8]: 1420 µg/mL
- half-life at 4.03 mM [4, 8]: 4.47 ± 1.27 min
- Binding Probability of TPGnRH nanofiber tip to U-87 MG cells (GnRH-R on U-87 MG cells; [9]): 3.4%
- Binding Probability of TPGnRH nanofiber tip to U-87 MG cells (GnRH-R on U-87 MG cells; [10]): 12.6%
- Plateau [5]: 3.952 µg/mL
- k ([5]; analyte in brackets of label): 0.1928 min⁻¹
- Plateau [6]: 16.58 µg/mL
- T1/2α [6]: 0.67 ± 0.03 min
- kα [6]: 1.088 min⁻¹
SMILES: CC(C)C[C@H](NC(=O)CNC(=O)[C@H](Cc1ccc(O)cc1)NC(=O)[C@H](CO)NC(=O)[C@H](Cc1c[nH]c2ccccc12)NC(=O)[C@H](Cc1cnc[nH]1)NC(=O)[C@@H](N)CCC(=O)O)C(=O)N[C@@H](CCCNC(=N)N)C(=O)N1CCC[C@H]1C(=O)NCC(N)=O [Glu-GnRH, Glu-His-Trp-Ser^4-Tyr^5-Gly^6-Leu-Arg-Pro-Gly-NH2, reference compound]

- Binding Force ([2]; U-87 MG): 29.88 ± 2.34 pN
- Binding Probability ([2]; U-87 MG): 4.4 ± 0.94%
- koff ([2]; U-87 MG): 0.68 ± 0.08 s⁻¹
- Binding Force ([2]; UP-007): 34.00 ± 15.5 pN
- Binding Probability ([2]; UP-007): 7.48 ± 0.76%
- koff ([2]; UP-007): 1.54 ± 0.12 s⁻¹
- Binding Probability of TPGnRH nanofiber tip to U-87 MG cells (GnRH-R on U-87 MG cells; [9]): 3.8%
- Binding Probability of TPGnRH nanofiber tip to U-87 MG cells (GnRH-R on U-87 MG cells; [10]): 16.2%
SMILES: CC(C)C[C@H](NC(=O)[C@@H](COC(C)(C)C)NC(=O)[C@H](Cc1ccc(O)cc1)NC(=O)[C@H](CO)NC(=O)[C@H](Cc1c[nH]c2ccccc12)NC(=O)[C@H](Cc1cnc[nH]1)NC(=O)[C@@H]1CCC(=O)N1)C(=O)N[C@@H](CCCNC(=N)N)C(=O)N1CCC[C@H]1C(=O)NNC(N)=O [Goserelin, goserelin acetate, reference compound]

- % release from 3D printed bioink ([7]; 0 minutes): 0%
- % release from 3D printed bioink ([7]; 1 minutes): 13.1 ± 15.6%
- % release from 3D printed bioink ([7]; 5 minutes): 13.7 ± 5.6%
- % release from 3D printed bioink ([7]; 10 minutes): 18.0 ± 10.6%
- % release from 3D printed bioink ([7]; 15 minutes): 10.7 ± 2.3%
- % release from 3D printed bioink ([7]; 30 minutes): 11.8 ± 5.2%
- % release from 3D printed bioink ([7]; 45 minutes): 13.7 ± 8.4%
- % release from 3D printed bioink ([7]; 60 minutes): 20.7 ± 9.6%
- % release from 3D printed bioink ([7]; 90 minutes): 24.6 ± 5.1%
- % release from 3D printed bioink ([7]; 120 minutes): 26.9 ± 9.4%
- % release from 3D printed bioink ([7]; 240 minutes): 19.0 ± 10.9%
- % release from 3D printed bioink ([7]; 360 minutes): 24.8 ± 7.3%
- % release from 3D printed bioink ([7]; 1110 minutes): 28.0 ± 11.4%
- % release from 3D printed bioink ([7]; 1440 minutes): 30.2 ± 9.8%
- % release from 3D printed bioink ([7]; 2760 minutes): 37.1 ± 7.2%
- Papp A→B at 50 μg mL^−1 (in vitro): 0.19 ×10⁻⁶ cm/s
- solubility (physchem; aqueous buffer): 0.92 ± 1.35 µg/mL (≈ 1.08 µM)
- solubility (physchem; aqueous with cosolvent or surfactant or cyclodextrin): 29.3 ± 3.63 µg/mL (≈ 34.3 µM)
SMILES: CC(=O)O[C@H]1C(=O)[C@@]2(C)[C@H]([C@H](OC(=O)c3ccccc3)[C@]3(O)C[C@H](OC(=O)[C@H](O)[C@@H](NC(=O)c4ccccc4)c4ccccc4)C(C)=C1C3(C)C)[C@]1(OC(C)=O)CO[C@@H]1C[C@@H]2O [PAX, Paclitaxel, reference compound]
